Results from ChEMBL document CHEMBL2424566, “Preparation of betulinic acid derivatives by chemical and biotransformation methods and determination of cytotoxicity against selected cancer cell lines” (Eur J Med Chem, 2013).
The source made the active and inactive calls. The calls are words filed in the database; no cut-off is given here.

How the values were obtained:
[1] = Cytotoxicity against human 518A2 cells assessed as cell viability after 96 hrs by SRB assay; assay type: functional, cell-based; details: 518A2, 96 h
A549 [2] = experiment: Cytotoxicity against human A549 cells assessed as cell viability after 96 hrs by SRB assay; assay type: functional, cell-based; details: A549, 96 h
8505C = experiment: Cytotoxicity against human 8505C cells assessed as cell viability after 96 hrs by SRB assay; assay type: functional, cell-based
MCF7 [3] = experiment: Cytotoxicity against human MCF7 cells assessed as cell viability after 96 hrs by SRB assay; assay type: functional, cell-based; details: MCF7, 96 h
A2780 [4] = experiment: Cytotoxicity against human A2780 cells assessed as cell viability after 96 hrs by SRB assay; assay type: functional, cell-based; details: A2780, 96 h
[5] = Selectivity index, ratio of IC50 for human CCD-18Co cells to IC50 for human 518A2 cells; assay type: functional
A549 [6] = experiment: Induction of apoptosis in human A549 cells assessed as DNA fragmentation at IC80 after 24 hrs by acridine orange/ethidium bromide staining-based fluorescence microscopic analysis; assay type: functional, cell-based
A549 [7] = experiment: Induction of apoptosis in human A549 cells assessed as membrane blebbing at IC80 after 24 hrs by acridine orange/ethidium bromide staining-based fluorescence microscopic analysis; assay type: functional, cell-based
A2780 [8] = experiment: Selectivity index, ratio of IC50 for human CCD-18Co cells to IC50 for human A2780 cells; assay type: functional
MCF7 [9] = experiment: Selectivity index, ratio of IC50 for human CCD-18Co cells to IC50 for human MCF7 cells; assay type: functional
A549 [10] = experiment: Selectivity index, ratio of IC50 for human CCD-18Co cells to IC50 for human A549 cells; assay type: functional
[11] = Cytotoxicity against human CCD-18Co cells assessed as cell viability after 96 hrs by SRB assay; assay type: cell-based
A549 [12] = experiment: Induction of apoptosis in human A549 cells assessed as apoptotic bodies at IC80 after 24 hrs by acridine orange/ethidium bromide staining-based fluorescence microscopic analysis; assay type: functional, cell-based
[13] = Selectivity index, ratio of IC50 for human CCD-18Co cells to IC50 for human 8505C cells; assay type: functional, 8505C;CCD-18Co
A549 [14] = experiment: Induction of apoptosis in human A549 cells assessed as chromatin condensation at IC80 after 24 hrs by acridine orange/ethidium bromide staining-based fluorescence microscopic analysis; assay type: functional, cell-based
A549 [15] = experiment: Cell cycle arrest in human A549 cells assessed as accumulation at subG1 phase at IC80 after 24 hrs by propidium iodide staining-based flow cytometric analysis (2.73 +/- 0.49%); assay type: functional
A549 [16] = experiment: Cell cycle arrest in human A549 cells assessed as accumulation at S phase at IC80 after 24 hrs by propidium iodide staining-based flow cytometric analysis (20.2 +/- 0.81%); assay type: functional
A549 [17] = experiment: Cell cycle arrest in human A549 cells assessed as accumulation at G0/G1 phase at IC80 after 48 hrs by propidium iodide staining-based flow cytometric analysis (48.5 +/- 1.82%); assay type: functional
A549 [18] = experiment: Cell cycle arrest in human A549 cells assessed as accumulation at G2/M phase at IC80 by propidium iodide staining-based flow cytometric analysis; assay type: functional; details: TDE = time-dependent effect
A549 [19] = experiment: Cell cycle arrest in human A549 cells assessed as accumulation at S phase at IC80 after 48 hrs by propidium iodide staining-based flow cytometric analysis (19.1 +/- 1.05%); assay type: functional
A549 [20] = experiment: Induction of apoptosis in human A549 cells assessed as early apoptosis and secondary necrosis at IC80 after 48 hrs by annexin V-FITC staining-based flow cytometric analysis relative to control; assay type: functional
A549 [21] = experiment: Cell cycle arrest in human A549 cells assessed as accumulation at S phase at IC80 by propidium iodide staining-based flow cytometric analysis; assay type: functional; details: TDE = time-dependent effect
A549 [22] = experiment: Cell cycle arrest in human A549 cells assessed as accumulation at G2/M phase at IC80 after 24 hrs by propidium iodide staining-based flow cytometric analysis (24.9 +/- 1.46%); assay type: functional
A549 [23] = experiment: Cell cycle arrest in human A549 cells assessed as accumulation at G0/G1 phase at IC80 after 24 hrs by propidium iodide staining-based flow cytometric analysis (49.5 +/- 2.51%); assay type: functional
A549 [24] = experiment: Cell cycle arrest in human A549 cells assessed as accumulation at G2/M phase at IC80 after 48 hrs by propidium iodide staining-based flow cytometric analysis (26 +/- 1.1%); assay type: functional
A549 [25] = experiment: Cell cycle arrest in human A549 cells assessed as accumulation at subG1 phase at IC80 by propidium iodide staining-based flow cytometric analysis; assay type: functional; details: TDE = time-dependent effect
A549 [26] = experiment: Induction of apoptosis in human A549 cells assessed as early apoptosis and secondary necrosis at IC80 after 24 hrs by annexin V-FITC staining-based flow cytometric analysis relative to control; assay type: functional
A549 [27] = experiment: Cell cycle arrest in human A549 cells assessed as accumulation at subG1 phase at IC80 after 48 hrs by propidium iodide staining-based flow cytometric analysis (3.23 +/- 0.25%); assay type: functional
A549 [28] = experiment: Cell cycle arrest in human A549 cells assessed as accumulation at G0/G1 phase at IC80 by propidium iodide staining-based flow cytometric analysis; assay type: functional; details: TDE = time-dependent effect
A549 [29] = experiment: Induction of apoptosis in human A549 cells assessed as occurrence of typical DNA ladders at IC80 after 72 hrs by agarose gel electrophoresis; assay type: functional, cell-based

Row | Structure (SMILES) | IC50 [1] | IC50 (A549 [2]) | IC50 (8505C) | IC50 (MCF7 [3]) | IC50 (A2780 [4]) | Activity (A549 [6]) | Activity (A549 [7]) | IC50 [11] | Activity (A549 [12]) | Activity (A549 [14]) | further results
1 | CC(=O)[C@@H]1CC[C@]2(C(=O)O)CC[C@]3(C)[C@H](CC[C@@H]4[C@@]5(C)CC[C@H](O)C(C)(C)[C@@H]5CC[C@]43C)[C@@H]12 [PLATANIC ACID] | 97.5 µM | 75.4 µM | 93.6 µM | 63.2 µM | 68 µM |  |  |  |  |  | 
2 | C=C(C)[C@@H]1CC[C@]2(C(=O)OC)CC[C@]3(C)[C@H](CC[C@@H]4[C@@]5(C)CC/C(=N\Nc6ccc([N+](=O)[O-])cc6[N+](=O)[O-])C(C)(C)[C@@H]5CC[C@]43C)[C@@H]12 | > 100 µM | > 100 µM | > 100 µM | > 100 µM | > 100 µM |  |  |  |  |  | 
3 | C/C(=N\Nc1ccc([N+](=O)[O-])cc1[N+](=O)[O-])[C@@H]1CC[C@]2(C(=O)O)CC[C@]3(C)[C@H](CC[C@@H]4[C@@]5(C)CC[C@H](O)C(C)(C)[C@@H]5CC[C@]43C)[C@@H]12 | 9.09 µM | 7.62 µM | 8.72 µM | 6.84 µM | 11.3 µM | Active | Active | 56.7 µM | Active | Active | Ratio IC50 [5]: 5; Ratio IC50 (A2780 [8]): 5; Ratio IC50 (MCF7 [9]): 5; Ratio IC50 (A549 [10]): 5; Ratio IC50 [13]: 5
4 | C=C(C)[C@@H]1CC[C@]2(C(=O)OC)CC[C@]3(C)[C@H](CC[C@@H]4[C@@]5(C)CCC(=O)C(C)(C)[C@@H]5CC[C@]43C)[C@@H]12 [METHYL BETULONATE] | 68 µM | > 100 µM | > 100 µM | 98.1 µM | 36.2 µM |  |  |  |  |  | 
5 | C[C@@H](C=O)[C@@H]1CC[C@]2(C(=O)O)CC[C@]3(C)[C@H](CC[C@@H]4[C@@]5(C)CCC(O)C(C)(C)[C@@H]5CC[C@]43C)[C@@H]12 (stereo partly specified) | 52.9 µM | 46.9 µM | 55.2 µM | 44.4 µM | 50.3 µM |  |  |  |  |  | 
6 | C=C(C)[C@@H]1CC[C@]2(C(=O)O)CC[C@]3(C)[C@H](CC[C@@H]4[C@@]5(C)CC[C@H](O)C(C)(C)[C@@H]5CC[C@]43C)[C@@H]12 [BETULINIC ACID] | 14.8 µM | 13.3 µM | 12.6 µM | 14 µM | 8.75 µM | Active | Active | 43.6 µM | Active | Active | Activity (A549 [15]): 18.8%; Activity (A549 [16]): 20.1%; Activity (A549 [17]): 0.96%; Activity (A549 [18]): tde; Activity (A549 [19]): 0.33%; Activity (A549 [20]): >50%; Activity (A549 [21]): tde; Activity (A549 [22]): 20.1%; Activity (A549 [23]): 36.7%; Activity (A549 [24]): 0.17%; Activity (A549 [25]): tde; Activity (A549 [26]): 32%; Activity (A549 [27]): 98.5%; Activity (A549 [28]): tde
7 | CC(=O)[C@@H]1CC[C@]2(C(=O)O)CC[C@]3(C)[C@H](CC[C@@H]4[C@@]5(C)CC/C(=N\Nc6ccc([N+](=O)[O-])cc6[N+](=O)[O-])C(C)(C)[C@@H]5CC[C@]43C)[C@@H]12 | 14.6 µM | 12.1 µM | 16.9 µM | 7.52 µM | 9.1 µM | Active | Active | 43.5 µM | Active | Active | 
8 | C=C(C)[C@@H]1CC[C@]2(C(=O)OCc3ccccc3)CC[C@]3(C)[C@H](CC[C@@H]4[C@@]5(C)CC/C(=N\Nc6ccc([N+](=O)[O-])cc6[N+](=O)[O-])C(C)(C)[C@@H]5CC[C@]43C)[C@@H]12 | > 100 µM | > 100 µM | > 100 µM | > 100 µM | 66.7 µM |  |  |  |  |  | 
9 | C/C(=N\Nc1ccc([N+](=O)[O-])cc1[N+](=O)[O-])[C@@H]1CC[C@]2(C(=O)O)CC[C@]3(C)[C@H](CC[C@@H]4[C@@]5(C)CC/C(=N\Nc6ccc([N+](=O)[O-])cc6[N+](=O)[O-])C(C)(C)[C@@H]5CC[C@]43C)[C@@H]12 | > 100 µM | > 100 µM | > 100 µM | 60.2 µM | 53.8 µM |  |  |  |  |  | 
10 | CC(=O)[C@@H]1CC[C@]2(C(=O)O)CC[C@]3(C)[C@H](CC[C@@H]4[C@@]5(C)CCC(=O)C(C)(C)[C@@H]5CC[C@]43C)[C@@H]12 | 43.5 µM | 59.1 µM | 64.1 µM | 47.1 µM | 16.1 µM |  |  |  |  |  | 
11 | C[C@H](C=O)[C@@H]1CC[C@]2(C(=O)O)CC[C@]3(C)[C@H](CC[C@@H]4[C@@]5(C)CC/C(=N\Nc6ccc([N+](=O)[O-])cc6[N+](=O)[O-])C(C)(C)[C@@H]5CC[C@]43C)[C@@H]12 | 1.76 µM | 2 µM | 2.17 µM | 2.41 µM | 1.81 µM |  |  |  |  |  | 
12 | C=C(C)[C@@H]1CC[C@]2(C(=O)O)CC[C@]3(C)[C@H](CC[C@@H]4[C@@]5(C)CCC(=O)C(C)(C)[C@@H]5CC[C@]43C)[C@@H]12 [BETUNOLIC ACID] | 12.9 µM | 10.4 µM | 14 µM |  | 5.97 µM |  |  |  |  |  | 
13 | C[C@@H](C=O)[C@@H]1CC[C@]2(C(=O)O)CC[C@]3(C)[C@H](CC[C@@H]4[C@@]5(C)CC/C(=N\Nc6ccc([N+](=O)[O-])cc6[N+](=O)[O-])C(C)(C)[C@@H]5CC[C@]43C)[C@@H]12 | 1.91 µM | 1.79 µM | 2.44 µM | 2.51 µM | 1.76 µM | Active | Active | 8.3 µM | Active | Active | Activity (A549 [15]): 8.77%; Activity (A549 [16]): 14.8%; Activity (A549 [17]): 49.7%; Ratio IC50 [5]: 3; Activity (A549 [18]): tde; Activity (A549 [19]): 14.6%; Activity (A549 [20]): 8%; Ratio IC50 (A2780 [8]): 3; Activity (A549 [21]): tde; Activity (A549 [22]): 13.9%; Ratio IC50 (MCF7 [9]): 3; Activity (A549 [23]): 60.9%; Ratio IC50 (A549 [10]): 3; Activity (A549 [24]): 15.9%; Activity (A549 [25]): tde; Activity (A549 [26]): 12%; Activity (A549 [29]): Active; Activity (A549 [27]): 18.3%; Ratio IC50 [13]: 3; Activity (A549 [28]): tde
14 | C/C(=N/O)[C@@H]1CC[C@]2(C(=O)O)CC[C@]3(C)[C@H](CC[C@@H]4[C@@]5(C)CC[C@H](O)C(C)(C)[C@@H]5CC[C@]43C)[C@@H]12 | 63.2 µM | 53.7 µM | 55.9 µM | 52.2 µM | 54.4 µM |  |  |  |  |  | 
15 | C=C(C)[C@@H]1CC[C@]2(C(=O)OC)CC[C@]3(C)[C@H](CC[C@@H]4[C@@]5(C)CC[C@H](O)C(C)(C)[C@@H]5CC[C@]43C)[C@@H]12 [METHYL BETULINATE] | 16.9 µM | 17.2 µM | 17.2 µM | 16.9 µM | 16.3 µM |  |  |  |  |  | 
16 | C=C(C)[C@@H]1CC[C@]2(C(=O)O)CC[C@]3(C)[C@H](CC[C@@H]4[C@@]5(C)CC/C(=N\Nc6ccc([N+](=O)[O-])cc6[N+](=O)[O-])C(C)(C)[C@@H]5CC[C@]43C)[C@@H]12 | 13.5 µM | 21.4 µM | 25.9 µM | 8.17 µM | 6.22 µM | Active | Active | 18.1 µM | Active | Active | Ratio IC50 [5]: 1; Ratio IC50 (A2780 [8]): 1; Ratio IC50 (MCF7 [9]): 1
